Data taken from US20260297086A1, “CRYSTALLINE PROLYL HYDROXYLASE DOMAIN-CONTAINING PROTEIN (PHD) INHIBITOR AND USES THEREOF” (Insilico Medicine IP Limited, priority 2023, published 2026).

Assays:
[1] = biological target: PHD2 (Homo sapiens, UniProt Q9GZT9); experiment: PHD2 Enzymatic Assay (AlphaScreen); format: biochemical; settings: PHD2 enzyme, 30 min preincubation at RT
Method: Example 1: PHD2 Enzymatic Assay Procedure
Compound DMSO stock preparation: Compound 1 was reconstituted into 20 mM stock by DMSO.
Compound storage: Compound 1 in DMSO was stored at RT in a desiccator for short-term storage (up to 3 months).
• Reference Roxadustat (FG-4592) was 3-fold serial diluted from 400 μM for 10 doses in DMSO. • The compounds were 3-fold serial diluted from 400 μM for 10 doses in DMSO. • Prepared 200× positive control (400 μM, FG-4592) and 200× vehicle control (100% DMSO). • Centrifuged compound plates at 1000 rpm for 1 min.
• a) Transferred 40 nl compound dilutions into each well of assay plates using Echo 655; • b) Sealed the assay plate and centrifuge compound plates at 1000 rpm for 1 min. • c) Prepared and add 4 μL of the 2×PHD2 enzyme working solution to individual well of the assay plate. • d) Sealed the assay plate and centrifuge compound plates at 1000 rpm for 1 min. […]
• ALPHASCREEN signal (ALPcmpd) is calculated for each well • % Inhibition is calculated as follow:
[formula] • ALPpositive: The average ALP for the positive controls across the plate. • ALPvehicle: The average ALP for the negative controls across the plate. • Calculate IC50 and Plot effect-dose curve of compounds: • Calculated IC50 by fitting % inhibition values and log of compound concentrations to nonlinear regression (dose response−variable slope) with Graphpad 8.0. […]

[2] = system: HIF1α (Caco2 cells); experiment: Caco2-HIF1α-HiBit assay; format: cell-based; settings: Homo sapiens, Caco-2

Chain of PHD2 (Q9GZT9 whole entry): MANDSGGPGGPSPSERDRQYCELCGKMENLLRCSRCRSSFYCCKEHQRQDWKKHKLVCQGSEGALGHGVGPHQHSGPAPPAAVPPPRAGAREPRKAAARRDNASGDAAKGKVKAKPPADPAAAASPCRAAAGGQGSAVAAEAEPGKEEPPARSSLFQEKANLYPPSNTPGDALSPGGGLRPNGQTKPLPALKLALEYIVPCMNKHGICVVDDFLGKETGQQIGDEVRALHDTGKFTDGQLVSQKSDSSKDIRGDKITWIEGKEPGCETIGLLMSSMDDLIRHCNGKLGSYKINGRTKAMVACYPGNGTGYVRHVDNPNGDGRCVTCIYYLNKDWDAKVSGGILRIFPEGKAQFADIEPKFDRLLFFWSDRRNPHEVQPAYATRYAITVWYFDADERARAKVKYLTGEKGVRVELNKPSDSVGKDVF

IC50 [1]: < 5 nM
EC50 [2]: < 2500 nM
Structure (SMILES): CC(C)(C)OC(=O)N1CCN(c2ccc3c(O)c(C(=O)NCc4ccc(C#N)nc4)ncc3n2)CC1 [Compound 1, tert-butyl 4-(6-(((6-cyanopyridin-3-yl)methyl)carbamoyl)-5-hydroxy-1,7-naphthyridin-2-yl)piperazine-1-carboxylate]
